Assay results reported in PMC9639481, “Discovery of dual tubulin-NEDDylation inhibitors with antiproliferative activity” (Journal of Enzyme Inhibition and Medicinal Chemistry, 2022).

Key:
[1] = test system: T1, tubulin; experiment: in vitro tubulin polymerisation assay; supported by immunofluorescence of microtubules in HepG2 cells; assay type: biochemical
T1 construct: with alpha/beta-tubulin heterodimer

[2] = test system: T1, tubulin; experiment: in vitro tubulin polymerisation assay; assay type: biochemical

Structure (SMILES)	IC50 [1] [µM]	IC50 [2] [µM]
COc1ccc(CN(C(=O)CSC(=S)N2CCCCC2)c2cc(OC)c(OC)c(OC)c2)cc1 [C11, 2-((4-Methoxybenzyl)(3,4,5-trimethoxyphenyl)amino)-2-oxoethylpiperidine-1-carbodithioate]	2.4	
COc1ccc(CN(C(=O)CSC(=S)N2CC(C)CC(C)C2)c2cc(OC)c(OC)c(OC)c2)cc1 (centres unmarked) [C14, 2-((4-Methoxybenzyl)(3,4,5-trimethoxyphenyl)amino)-2-oxoethyl-3,5-dimethylpiperidine-1-carbodithioate]		> 4
